# Data as given in US20140128352A1, “COMPOUNDS AND METHODS FOR MODULATING MITOCHONDRIAL METABOLISM AND REACTIVE OXYGEN SPECIES PRODUCTION” (Buck Institute for Research on Aging, priority 2012, published 2014).
# Read-outs that look alike come from different tables or passages of the source.
# What was measured:
# [1] = system: ubiquinone binding site of complex I (IQ); assay: High-throughput screen: ROS production from ubiquinone binding site of complex I (IQ), isolated skeletal muscle mitochondria; assay type: biochemical, rat; settings: for IQ: percent change in ROS from DMSO controls; for % Reduction in ROS production (IQ): Table 2, 5 mM succinate, compounds 2.5 μM, percent change from DMSO, positive control −100%
# [2] = molecular target: T1, flavin binding site of complex I (IF) (Rattus norvegicus, UniProt Q5XIH3); assay: High-throughput screen: ROS production from flavin binding site of complex I (IF); assay type: biochemical
# T1 construct: freshly isolated muscle mitochondria were assayed; from tissue; host or cells: rat skeletal muscle mitochondria (Wistar, Harlan Laboratories)
# [3] = molecular target: T2, outer ubiquinone binding site of complex III (IIIQO) (Rattus norvegicus, UniProt P00159+P20788); assay: High-throughput screen: ROS production from outer ubiquinone binding site of complex III (IIIQO); assay type: biochemical
# T2 construct: freshly isolated muscle mitochondria were assayed; from tissue; host or cells: rat skeletal muscle mitochondria (Wistar, Harlan Laboratories)
# [4] = molecular target: T3, succinate dehydrogenase/complex II (SDH) (Rattus norvegicus, UniProt P21913+Q641Z9+Q6PCT8+Q920L2); assay: High-throughput screen: ROS production from succinate dehydrogenase/complex II (SDH); assay type: biochemical; settings: percent change in ROS from DMSO controls
# T3 construct: freshly isolated muscle mitochondria were assayed; from tissue; host or cells: rat skeletal muscle mitochondria (Wistar, Harlan Laboratories)
# [5] = molecular target: T4, glycerol-3-phosphate dehydrogenase (GPDH) (Rattus norvegicus, UniProt P35571); assay: High-throughput screen: ROS production from glycerol-3-phosphate dehydrogenase (GPDH); assay type: biochemical; parameters: inhibition: dose or concentration left out as unconfirmed; settings: for inhibition / GPDH: percent change in ROS from DMSO controls
# T4 construct: The activity of GPDH in intact mitochondria (0.3 mg/mL) was measured; from tissue; host or cells: rat skeletal muscle mitochondria (Wistar, Harlan Laboratories)
# T4 sequence (P35571 43-727): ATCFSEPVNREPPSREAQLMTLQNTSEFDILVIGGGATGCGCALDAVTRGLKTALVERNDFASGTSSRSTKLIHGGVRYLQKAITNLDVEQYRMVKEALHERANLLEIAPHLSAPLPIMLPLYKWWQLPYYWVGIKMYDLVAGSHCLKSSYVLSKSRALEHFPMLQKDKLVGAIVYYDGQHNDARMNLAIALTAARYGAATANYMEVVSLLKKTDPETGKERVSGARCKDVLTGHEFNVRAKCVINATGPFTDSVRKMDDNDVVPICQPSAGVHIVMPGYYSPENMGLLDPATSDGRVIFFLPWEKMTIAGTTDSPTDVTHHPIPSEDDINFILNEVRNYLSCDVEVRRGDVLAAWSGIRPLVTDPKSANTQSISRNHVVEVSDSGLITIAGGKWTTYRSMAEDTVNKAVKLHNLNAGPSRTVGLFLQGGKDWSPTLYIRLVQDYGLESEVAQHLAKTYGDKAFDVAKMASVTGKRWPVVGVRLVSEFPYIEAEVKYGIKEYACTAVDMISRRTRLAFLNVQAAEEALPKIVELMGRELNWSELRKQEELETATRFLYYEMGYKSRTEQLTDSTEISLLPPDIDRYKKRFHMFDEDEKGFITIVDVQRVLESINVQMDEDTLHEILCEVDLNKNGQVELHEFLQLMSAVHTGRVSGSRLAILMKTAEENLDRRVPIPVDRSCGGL
# [6] = system: mitochondrial membrane potential (ΔΨm); assay: Membrane potential (ΔΨm) counterscreen with TMRM; settings: malate, nigericin
# [7] = Table 3, 5 mM glutamate, 5 mM malate, 4 μM rotenone, compounds 2.5 μM, percent change from DMSO, positive control −100%, read-out: % Reduction in ROS production (IF)
# [8] = Table 8, percent change in ROS from DMSO controls, read-out: IF
# [9] = Table 4, 5 mM succinate, 4 μM rotenone, 2.5 μM antimycin A, compounds 2.5 μM, percent change from DMSO, read-out: % Reduction in ROS production (IIIQO)
# [10] = Table 8, percent change in ROS from DMSO controls, read-out: IIIQO
# [11] = Table 7, percent change in ROS from DMSO controls, read-out: IF
# [12] = Table 8, percent change in ROS from DMSO controls
# [13] = Table 9, percent change in ROS from DMSO controls
# [14] = Table 7, percent change in ROS from DMSO controls, read-out: IIIQO
# [15] = Table 9, percent change in ROS from DMSO controls, read-out: IIIQo
# T1 sequence (Q5XIH3 21-464 limits assumed, one chain of several): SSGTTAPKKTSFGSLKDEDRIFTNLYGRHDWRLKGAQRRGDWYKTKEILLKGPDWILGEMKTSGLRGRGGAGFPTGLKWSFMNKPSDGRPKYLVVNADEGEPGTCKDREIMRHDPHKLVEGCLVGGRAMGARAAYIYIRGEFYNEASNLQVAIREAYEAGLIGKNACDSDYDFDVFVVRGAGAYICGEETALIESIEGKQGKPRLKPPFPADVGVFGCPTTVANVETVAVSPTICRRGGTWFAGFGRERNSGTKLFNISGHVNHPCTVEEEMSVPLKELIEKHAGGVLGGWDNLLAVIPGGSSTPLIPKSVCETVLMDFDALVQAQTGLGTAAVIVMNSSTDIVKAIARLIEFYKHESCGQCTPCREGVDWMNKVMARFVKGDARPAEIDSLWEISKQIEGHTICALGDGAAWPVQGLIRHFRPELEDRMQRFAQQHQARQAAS
# T3 sequence (Q920L2 35-656): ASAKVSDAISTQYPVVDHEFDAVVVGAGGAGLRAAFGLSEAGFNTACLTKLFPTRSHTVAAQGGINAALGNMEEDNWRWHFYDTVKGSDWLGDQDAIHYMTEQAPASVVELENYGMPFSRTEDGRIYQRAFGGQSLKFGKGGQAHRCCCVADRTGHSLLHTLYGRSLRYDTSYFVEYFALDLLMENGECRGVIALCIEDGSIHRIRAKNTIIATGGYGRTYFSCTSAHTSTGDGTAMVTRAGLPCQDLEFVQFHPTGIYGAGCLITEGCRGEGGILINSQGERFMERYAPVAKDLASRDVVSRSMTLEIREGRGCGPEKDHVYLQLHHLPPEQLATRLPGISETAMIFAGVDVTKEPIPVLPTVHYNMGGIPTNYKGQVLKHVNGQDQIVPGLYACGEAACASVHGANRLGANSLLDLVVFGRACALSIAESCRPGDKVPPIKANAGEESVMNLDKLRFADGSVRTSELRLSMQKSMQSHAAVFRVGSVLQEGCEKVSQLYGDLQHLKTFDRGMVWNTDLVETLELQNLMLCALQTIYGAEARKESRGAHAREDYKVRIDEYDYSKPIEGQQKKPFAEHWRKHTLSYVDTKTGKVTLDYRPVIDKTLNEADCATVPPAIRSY
# T3 sequence (P21913 31-282): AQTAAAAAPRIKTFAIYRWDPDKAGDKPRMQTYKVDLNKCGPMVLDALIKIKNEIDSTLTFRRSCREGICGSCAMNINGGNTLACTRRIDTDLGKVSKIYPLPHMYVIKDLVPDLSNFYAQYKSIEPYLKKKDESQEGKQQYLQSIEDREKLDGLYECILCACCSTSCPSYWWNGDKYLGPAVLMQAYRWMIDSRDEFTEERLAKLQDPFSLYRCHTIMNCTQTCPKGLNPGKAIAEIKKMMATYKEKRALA
# T3 sequence (Q641Z9 30-169 limits assumed): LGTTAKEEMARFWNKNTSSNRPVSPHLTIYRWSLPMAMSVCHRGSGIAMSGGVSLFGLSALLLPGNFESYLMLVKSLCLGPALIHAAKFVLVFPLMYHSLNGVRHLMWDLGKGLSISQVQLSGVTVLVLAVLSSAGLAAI
# T3 sequence (Q6PCT8 57-159): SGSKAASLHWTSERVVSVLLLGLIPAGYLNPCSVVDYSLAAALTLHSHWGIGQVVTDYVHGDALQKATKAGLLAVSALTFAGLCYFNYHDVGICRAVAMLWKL
SMILES,IQ ([1]; Table 8),"inhibition at 2.5 µM [2, 7]","ΔΨm ([6]; Table 8, glutamate)",% Reduction in ROS production (IQ) [1],IQ ([1]; Table 7),IQ ([1]; Table 9),"inhibition at 2.5 µM [2, 11]","IF [2, 12]","IF [2, 13]","inhibition at 2.5 µM [3, 14]","IIIQO [3, 12]","inhibition at 2.5 µM [3, 15]",inhibition at 2.5 µM ([4]; Table 7),SDH ([4]; Table 8),SDH ([4]; Table 9),inhibition ([5]; Table 7),GPDH ([5]; Table 8),GPDH ([5]; Table 9),"ΔΨm ([6]; Table 9, glutamate)",further results
CCC1CCCCN1C/C=C/c1ccc(N(C)C)cc1 (stereo not shown) [Compound 80],0,23%,0,,,,,,,,,,,,,,,,,"inhibition at 2.5 µM [2, 8]: 23%; inhibition at 2.5 µM [3, 9]: 12%; inhibition at 2.5 µM [3, 10]: 12%; inhibition at 2.5 µM ([4]; Table 8): -4%; inhibition at 2.5 µM ([5]; Table 6, 25 mM glycerol phosphate, rotenone, antimycin A, malonate, myxothiazol, compounds 2.5 μM, scaled to IQ positive controls, read-out: % Reduction in ROS Production (GPDH)): 11%; inhibition ([5]; Table 8): 11%"
CC(C)(C)NS(=O)(=O)c1ccc2c(c1)C(=O)c1ccccc1C2=O [Compound 1],−60.6,,−1.5,−60.6%,−60.6,−60.6,-10%,10.0,10.0,-1%,1.0,-1%,8.2%,−8.2,−8.2,-4.1%,4.1,4.1,−1.5,
Clc1ccc(C(NC2CCN(Cc3ccccc3)CC2)c2ccccc2)cc1 (stereo not shown) [Compound 78],2,37%,−1,,,,,,,,,,,,,,,,,"inhibition at 2.5 µM [2, 8]: 37%; inhibition at 2.5 µM [3, 9]: 30%; inhibition at 2.5 µM [3, 10]: 30%; inhibition at 2.5 µM ([4]; Table 8): 5%; inhibition ([5]; Table 8): 6%"
Cl.OC12CCCCC1C(c1cccc(Cl)c1)NCC2 (stereo not shown) [Compound 51],−2.8,,0.9,,−2.8,−2.8,-5.5%,5.5,5.5,9.8%,−9.8,9.8%,1.8%,−1.8,−1.8,12%,−12.0,−12.0,0.9,
CC(C)Cc1ccc(C(C)C(=O)Nc2ccccc2O)cc1 (stereo not shown) [Compound 5],−40.0,,−3.5,−40.0%,−40.0,−40.0,-0.2%,0.2,0.2,3.6%,−3.6,3.6%,-2.3%,2.3,2.3,-0.7%,0.7,0.7,−3.5,
Cc1ccc(NS(=O)(=O)c2ccc(C3CCCCC3)cc2)cc1 [Compound 6],−38.6,,0.0,−38.6%,−38.6,−38.6,-3.6%,3.6,3.6,3.4%,−3.4,3.4%,1.1%,−1.1,−1.1,2.3%,−2.3,−2.3,0.0,
COc1cccc(/C=C/C(=O)c2c(O)cc(C)oc2=O)c1O [Compound 17],−7.4,26%,0.3,,−7.4,−7.4,26%,−26.0,−26.0,6%,−6.0,6%,3.4%,−3.4,−3.4,3.6%,−3.6,−3.6,0.3,
